What was measured:
Alternaria brassicae = test: In vivo preventive test on Alternaria brassicae (leaf spot on radish); conditions: dose 500 ppm; radish plants sprayed 24 h before contamination; grading 6 days after contamination vs control plants
Method in brief: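 Radish cotyledons (cv. Pernod Clair, grown at 17 °C) sprayed preventively with compound in acetone/tween/DMSO/water; solvent-only plants as controls. Inoculated 24 h later with A. brassicae spores (50 000 spores/ml, 15-day culture). Percent efficacy versus controls graded 6 days post-inoculation.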

Pyrenophora teres = test: In vivo preventive test on Pyrenophora teres (net blotch on barley); conditions: dose 500 ppm; barley plants sprayed 24 h before contamination; grading 14 days after contamination
Method in brief: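 "Plaisant" barley grown at 22° C, sprayed with active ingredient at the 1-leaf stage, then inoculated 24 h later with 12 000 spores/ml of P. teres. Efficacy (%) graded 14 days post-contamination against solvent-only (acetone/tween/DMSO/water) controls.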

Pyricularia oryzae = format: in vivo; conditions: dose 500 ppm; rice plants sprayed 24 h before contamination; grading 6 days after contamination
Puccinia recondita = test: In vivo preventive test on Puccinia recondita (brown rust on wheat); conditions: dose 500 ppm; wheat plants sprayed 24 h before contamination; grading 12 days after contamination
Experimental: Plants, used as controls, are treated with the mixture of acetone/tween/DMSO/water not containing the active material. After 24 hours, the plants are contaminated by spraying the leaves with an aqueous suspension of Puccinia recondita spores (100 000 spores per ml). […] Grading (% of efficacy) is carried out 12 days after the contamination, in comparison with the control plants.

Uromyces appendiculatus = test: In vivo preventive test on Uromyces appendiculatus (bean rust); conditions: dose 500 ppm; bean plants sprayed 24 h before contamination; grading 11 days after contamination
Method in brief: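 Saxa bean plants grown at 24° C were sprayed at the 2-leaf stage (9 cm) with compound in acetone/tween/DMSO/water; controls got solvent mix only. Leaves inoculated 24 h later with U. appendiculatus spores (150 000 spores/ml). Efficacy (%) graded 11 days post-inoculation versus controls.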

Phakopsora pachyrhizi = test: In vivo preventive Phakopsora test (soybeans); conditions: concentration 10 ppm of active ingredient; soybean plants; evaluated 7 days after inoculation
[1] = Measurement of log P values by HPLC on reversed phase columns (EEC directive 79/831 Annex V.A8); format: physicochemical; conditions: method marked [a]
Botrytis cinerea = test: In vivo preventive test on Botrytis cinerea (grey mould); conditions: dose 500 ppm; gherkin plants sprayed 24 h before contamination; grading 4 to 5 days after contamination
Experimental: Gherkin plants (“Vert petit de Paris” variety), sown in starter cups on a 50/50 peat soil-pozzolana substrate and grown at 24° C., are treated at the Z11 cotyledon stage by spraying with the active ingredient prepared as described above. Plants, used as controls, are treated with the mixture of acetone/tween/DMSO/water not containing the active material. After 24 hours, the plants are contaminated by spraying the cotyledons with an aqueous suspension of cryopreserved Botrytis cinerea spores (50 000 spores per ml). The spores are suspended in a nutrient solution composed of 10 g/L of PDB, 50 g/L of D-Fructose, 2 g/L of NH4NO3 and 1 g/L of KH2PO4. […] Grading (% of efficacy) is carried out 4 to 5 days after the contamination, in comparison with the control plants.

Row | Structure (SMILES) | Eff. % (Alternaria brassicae) [%] | Eff. % (Pyrenophora teres) [%] | Eff. % (Pyricularia oryzae) [%] | Eff. % (Puccinia recondita) [%] | Eff. % (Uromyces appendiculatus) [%] | Eff. % (Phakopsora pachyrhizi) [%] | logP [1] | Eff. % (Botrytis cinerea) [%]
1 | CC1Cc2c(NC(=O)c3c(C(F)F)nn(C)c3Cl)cccc2C1(C)C (stereo not shown) [Example 46] | 86 | 75 | 97 | 100 | 100 | 94 | 4.19[a] | 
2 | CC1CC2(CC2)c2cccc(NC(=O)c3c(C(F)F)nn(C)c3Cl)c21 (stereo not shown) [Example 51] |  | 70 |  | 98 | 100 | 93 | 3.83[a] | 94
